The results in this text go back to patent publication US9550763B2, “Heterocyclic ring and carbocyclic derivative” (Shionogi & Co., Ltd., priority 2012, dated 2017).

Molecules are shown by their SMILES.

In this experiment the target is human P2X3 receptor (Homo sapiens (Human), UniProt P56373). In words: Evaluation of human P2X3 receptor inhibitory activity (Test Example 1-1, FDSS 3000, 96-well, 50 nM ATP). It counts as cell-based. To be noted: human P2X3 receptor in C6BU-1 cells; Test Example 1-1 (compounds I-001 to I-300). In a few lines: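 C6BU-1 cells stably expressing human P2X3, loaded with 4 μM Fluo-3-AM (pH 7.5), preincubated 5 min with compound before 50 nM ATP challenge; fluorescence followed 4 min on FDSS 3000. IC50 derived from peak/baseline fluorescence ratio, no-compound as 0% and buffer-instead-of-ATP as 100% inhibition.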
Chain of human P2X3 receptor (P56373 whole entry): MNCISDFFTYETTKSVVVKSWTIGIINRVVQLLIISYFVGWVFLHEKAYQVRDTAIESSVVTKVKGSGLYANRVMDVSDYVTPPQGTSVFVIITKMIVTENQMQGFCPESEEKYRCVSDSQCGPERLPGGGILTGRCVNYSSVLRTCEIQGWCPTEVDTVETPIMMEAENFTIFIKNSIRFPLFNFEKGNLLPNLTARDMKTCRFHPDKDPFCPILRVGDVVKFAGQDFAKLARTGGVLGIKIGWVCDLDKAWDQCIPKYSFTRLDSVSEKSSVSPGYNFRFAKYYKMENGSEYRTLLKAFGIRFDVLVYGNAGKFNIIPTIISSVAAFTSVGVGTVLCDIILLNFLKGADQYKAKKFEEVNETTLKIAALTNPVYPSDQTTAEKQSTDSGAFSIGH
As to `CCC(=O)Nc1c[nH]/c(=N\c2ccc(Oc3ccnc(CO)c3)cc2)n(Cc2ccc(Cl)cc2)c1=O` [Compound I-163], the half-maximal inhibitory concentration (IC50) is 21 nM.

`CCc1oc2ccc(/N=c3\[nH]cc(CO)c(=O)n3Cc3ccc(Cl)cc3)cc2c1C` [Compound I-046] yielded an IC50 of 278 nM.

`CCCn1c(=O)cc(Nc2ccc(Oc3cccc(C(=O)O)n3)c(C)n2)n(Cc2ccc(Cl)cc2)c1=O` [Compound I-188] gave an IC50 of 6 nM.

In turn, `CCC(=O)Nc1c[nH]/c(=N\c2ccc(Oc3cnc(C(N)=O)cn3)cc2)n(Cc2ccc(Cl)cc2)c1=O` [Compound I-097] returned an IC50 of 5 nM.

In the case of `CCc1oc2ccc(/N=c3\[nH]cc(C=NOC)c(=O)n3Cc3ccc(Cl)cc3)cc2c1C` [Compound I-058], the midpoint of inhibition, the IC50, lay at 223 nM.

As to `CNC(=O)c1c[nH]/c(=N\c2ccc(Oc3nc(C)ns3)cc2)n(Cc2ccc(Cl)cc2)c1=O` [Compound I-257], the IC50 was determined as 41 nM. This IC50 is about 5.4-fold lower than that of the compound before.

`CCCn1c(=O)cc(Nc2ccc(Oc3cccc(C#N)n3)cc2)n(Cc2ccc(Cl)cc2)c1=O` [Compound I-164] registered an IC50 of 10 nM.

In turn, `CCn1c(=O)cc(Nc2ccc(Oc3ccc(C(=O)OC)cc3)nc2)n(Cc2ccc(Cl)cc2)c1=O` [Compound I-061] had an IC50 of 65 nM.

Turning to `Cc1cnc(-c2c[nH]/c(=N\c3ccc(Oc4cccc(C#N)n4)cc3)n(Cc3ccc(Cl)cc3)c2=O)o1` [Compound I-278, 1-(4-chlorobenzyl)-2-[4-(6-cyano-2-pyridyloxy)phenylamino]-5-(5-methyloxazol-2-yl)pyrimidin-6(1H)-one], it took 20 nM to reach half-maximal inhibition (IC50).

For `NC(=O)c1c[nH]/c(=N\c2ccc(Oc3ccc(F)cn3)c(F)c2)n(Cc2ccc(Cl)cc2)c1=O` [Compound I-208], it took 31 nM to reach half-maximal inhibition (IC50).

Take `C[C@@H](Cn1c(=O)cc(Nc2ccc(Oc3ncccc3F)cc2)n(Cc2ccc(Cl)cc2)c1=O)C(=O)O` [Compound I-119]: it took 8 nM to reach half-maximal inhibition (IC50).

As to `O=C(Nc1c[nH]/c(=N\c2ccc(Oc3ccon3)cc2)n(Cc2ccc(F)cc2)c1=O)C1CCOCC1` [Compound I-123], the IC50 stood at 24 nM.

Compound `NC(=O)c1c[nH]/c(=N\c2ccc(Oc3ccc(F)cn3)cc2)n(Cc2ccc(Cl)cc2)c1=O` [Compound I-142] yielded an IC50 of 26 nM.

With `CCC(=O)Nc1c[nH]/c(=N\c2ccc(Oc3cccc(C(N)=O)n3)cc2)n(Cc2ccc(Cl)cc2)c1=O` [Compound I-093], the IC50 is 9 nM.

In turn, `CCn1c(=O)cc(Nc2ccc(Oc3cccc(C(N)=O)n3)c(C)c2)n(Cc2ccc(Cl)cc2)c1=O` [Compound I-027] yielded an IC50 of 4 nM.

In turn, `CCc1oc2ccc(/N=c3\[nH]cc(NS(=O)(=O)C4CCOCC4)c(=O)n3Cc3ccc(Cl)cc3)cc2c1C` [Compound I-047] registered an IC50 of 18 nM. This IC50 is about 4.5-fold higher than that of the compound before.

In turn, `O=c1cc[nH]/c(=N\c2ccc(Oc3ccc(F)cn3)cc2)n1Cc1ccc(Cl)cc1` [Compound I-152] registered an IC50 of 291 nM.

Turning to `NC(=O)c1cccc(Oc2ccc(Nc3ncc(NC(=O)C4CCOCC4)c(=O)n3Cc3ccc(Cl)cc3)cc2)n1` [Compound I-038], the IC50 came out at 2 nM.

As to `CN(C)C(=O)c1c[nH]/c(=N\c2ccc(Oc3cccc(F)n3)cc2)n(Cc2ccc(Cl)cc2)c1=O` [Compound I-195], half-maximal inhibition (IC50) was put at 70 nM.

In turn, `O=C(NC1CCOCC1)c1c[nH]/c(=N\c2ccc(Oc3cccc(F)n3)cc2)n(Cc2ccc(Cl)cc2)c1=O` [Compound I-042] registered an IC50 of 14 nM.

Turning to `CN(C)C(=O)c1c[nH]/c(=N\c2ccc(Oc3cccc(C#N)n3)cc2)n(Cc2ccc(Cl)cc2)c1=O` [Compound I-209], it took 102 nM to reach half-maximal inhibition (IC50).

In turn, `CCn1c(=O)cc(Nc2ccc(Oc3cccc(C(=O)O)n3)cn2)n(Cc2ccc(Cl)cc2)c1=O` [Compound I-125] gave an IC50 of 23 nM.

Compound `CCC(=O)Nc1c[nH]/c(=N\c2ccc(Oc3ccnc(C(=O)OC)c3)cc2)n(Cc2ccc(Cl)cc2)c1=O` [Compound I-098] showed an IC50 of 11 nM.

Turning to `CCCn1c(=O)cc(Nc2ccc(Oc3cccc(C(=O)O)c3)c(C)n2)n(Cc2ccc(Cl)cc2)c1=O` [Compound I-259], it took 16 nM to reach half-maximal inhibition (IC50). The IC50 values of the last two compounds are within 1.5-fold of each other.

The compound `NC(=O)c1cc(Oc2ccc(Nc3nc(=O)c(C(=O)NC4CCOCC4)cn3Cc3ccc(Cl)cc3)cc2)ccn1` [Compound I-240] returned an IC50 of 6 nM. This IC50 lies about 2.7-fold lower than the previous one.

In turn, `C[C@@H](Cn1c(=O)cc(Nc2ccc(Oc3cccc(C#N)n3)c(F)c2)n(Cc2ccc(Cl)cc2)c1=O)C(=O)O` [Compound I-127] registered an IC50 of 3 nM.

Turning to `CCOC(=O)c1c[nH]/c(=N\c2ccc(Oc3ncccc3F)cc2)n(Cc2ccc(Cl)cc2)c1=O` [Compound I-107], half-maximal inhibition (IC50) was put at 29 nM.

Regarding `O=C(Nc1c[nH]/c(=N\c2ccc(Oc3ccon3)cc2)n(Cc2ccc(Cl)cc2)c1=O)c1ccoc1` [Compound I-267], inhibition was half-maximal at 45 nM (IC50).

In turn, `CCn1c(=O)cc(Nc2ccc(Oc3cccc(C#N)n3)c(F)c2)n(Cc2ccc(Cl)cc2)c1=O` [Compound I-011] registered an IC50 of 2 nM.

As to `CCCn1c(=O)cc(Nc2ccc(Oc3cccc(C#N)c3)c(C)n2)n(Cc2ccc(Cl)cc2)c1=O` [Compound I-247], the IC50 was found to be 96 nM.

In turn, `CCC(=O)Nc1c[nH]/c(=N\c2ccc(Oc3ccon3)cc2)n(Cc2ccc(Cl)cc2)c1=O` [Compound I-088] came in with an IC50 of 49 nM.

For `CCc1oc2ccc(/N=c3\[nH]cc(CC(=O)O)c(=O)n3Cc3ccc(Cl)cc3)cc2c1C` [Compound I-074], it took 828 nM to reach half-maximal inhibition (IC50). This IC50 is about 17-fold higher than that of the compound before.

The compound `O=c1c(NC(=O)[C@H]2C[C@H](F)C2)c[nH]/c(=N\c2ccc(Oc3ccon3)cc2)n1Cc1ccc(Cl)cc1` [Compound I-218] came in with an IC50 of 17 nM. This IC50 lies about 49-fold lower than the previous one.

`O=c1c(-c2ccncc2)c[nH]/c(=N\c2ccc(Oc3ccon3)cc2)n1Cc1ccc(Cl)cc1` [Compound I-274] displayed an IC50 of 356 nM.

`CCCn1c(=O)cc(Nc2ccc(Oc3cccc(C(=O)OC)c3)cc2)n(Cc2ccc(Cl)cc2)c1=O` [Compound I-168] came in with an IC50 of 159 nM. Against the preceding compound, the IC50 is about 2.2-fold lower.

Regarding `O=C(Nc1c[nH]/c(=N\c2ccc(Oc3ccon3)cc2)n(Cc2ccc(Cl)cn2)c1=O)C1CCOCC1` [Compound I-275], the IC50 was 51 nM.

In turn, `CCn1c(=O)cc(Nc2ccc(Oc3ccc(C(=O)O)cc3)cn2)n(Cc2ccc(Cl)cc2)c1=O` [Compound I-054] gave an IC50 of 43 nM.

`C=C(C)c1c[nH]/c(=N\c2ccc(Oc3cccc(C#N)n3)cc2)n(Cc2ccc(Cl)cc2)c1=O` [Compound I-147] registered an IC50 of 112 nM. Compared with the last compound, the IC50 is about 2.6-fold higher.

Turning to `CN(C(=O)C1CCOCC1)c1c[nH]/c(=N\c2ccc(Oc3ccon3)cc2)n(Cc2ccc(Cl)cc2)c1=O` [Compound I-109], the IC50 was 34 nM. This IC50 is about 3.3-fold lower than that of the compound before.

Take `CCCn1c(=O)cc(Nc2ccc(Oc3cccc(C#N)n3)cn2)n(Cc2ccc(Cl)cc2)c1=O` [Compound I-171]: the half-inhibitory concentration (IC50) is 21 nM.

Compound `CCn1c(=O)cc(Nc2ccc(Oc3cccc(C(N)=O)c3)c(C)n2)n(Cc2ccc(Cl)cc2)c1=O` [Compound I-260] showed an IC50 of 36 nM.

The compound `CCc1oc2ccc(Nc3ncc(NC(=O)C4CCOCC4)c(=O)n3Cc3cccc(Cl)c3)cc2c1C` [Compound I-078] gave an IC50 of 20 nM.

For `CCOC(=O)c1cn(Cc2ccc(Cl)cc2)c(Nc2ccc3oc(CC)c(C)c3c2)nc1=O` [Compound I-015], the concentration for half-maximal inhibition (IC50) worked out at 160 nM.

On to `CCOC(=O)c1cnc(Nc2ccc(Oc3cccc(C(=O)OC)n3)cc2)n(Cc2ccc(Cl)cc2)c1=O` [Compound I-051], for which the IC50 worked out at 27 nM.

`CCOC(=O)/N=C(\NC)Nc1c[nH]/c(=N\c2ccc(Oc3ccon3)cc2)n(Cc2ccc(Cl)cc2)c1=O` [Compound I-238]: the half-maximal inhibitory concentration (IC50) amounted to 990 nM.

By IC50 is commonly meant the concentration needed to halve the response being measured.
